From patent EP4032896A1, “THIAZOLOPYRIMIDONES AS INHIBITORS OF DDR1/2 AND THERAPEUTIC USES THEREOF” (Fundación del Sector Público Estatal Centro Nacional de …, priority 2021, dated 2022) come the findings set out here.

Assay [1] concerns the target T1, DDR1 (Homo sapiens, UniProt Q08345).
T1 construct: The enzymes were purchased as a catalytic domain GST Tag DDR1(#PR6913A); purchased ThermoFisher PR6913A
Put plainly: LanthaScreen Eu-Kinase Binding Assay (TR-FRET tracer displacement), DDR1. The following applies: catalytic domain GST Tag DDR1; Kinase Tracer 178. An excerpt:
(§1) DDR1/2 binding assay: The binding assay relies on the LanthaScreen ™ Eu-Kinase Binding Assay (ThermoFisher Scientfic). This is a kinase assay platform based on measuring the binding and displacement of an Alexa Fluor® conjugate of an ATP-competitive kinase inhibitor or tracer at a kinase active site (Kinase Tracer 178. #PV5593). Binding of the tracer to the kinase is detected by addition of a europium (Eu)-labeled anti-GST antibody (#PV 5594) which specifically labels the kinase of interest. This binding results in a high degree of fluorescence resonance energy transfer (FRET), whereas displacement of the tracer with a kinase inhibitor results in a loss of FRET. The enzymes were purchased as a catalytic domain GST Tag DDR1(#PR6913A) and DDR2 (#PR7167A) from ThermoFisher. Assay conditions were as indicated by the kit manufacturers. Assays were performed in 384-well plates. The final read out was generated using an EnVision plate reader (Perkin-Elmer). The emission ratio was calculated by dividing the acceptor/tracer emission (665 nm) by the antibody/donor emission (615 nm). Values were plotted against the inhibitor concentration and fit to a sigmoid dose-response curve using Activity base by IDBS software.
In general terms: TR-FRET usually uses a lanthanide donor and a delayed reading to cut background.

The target of assay [2] is T2, DDR1 (Mus musculus, UniProt Q03146).
T2 construct: expressed in transfected cells; host or cells: HEK293T
T2 sequence (Q03146 20-911): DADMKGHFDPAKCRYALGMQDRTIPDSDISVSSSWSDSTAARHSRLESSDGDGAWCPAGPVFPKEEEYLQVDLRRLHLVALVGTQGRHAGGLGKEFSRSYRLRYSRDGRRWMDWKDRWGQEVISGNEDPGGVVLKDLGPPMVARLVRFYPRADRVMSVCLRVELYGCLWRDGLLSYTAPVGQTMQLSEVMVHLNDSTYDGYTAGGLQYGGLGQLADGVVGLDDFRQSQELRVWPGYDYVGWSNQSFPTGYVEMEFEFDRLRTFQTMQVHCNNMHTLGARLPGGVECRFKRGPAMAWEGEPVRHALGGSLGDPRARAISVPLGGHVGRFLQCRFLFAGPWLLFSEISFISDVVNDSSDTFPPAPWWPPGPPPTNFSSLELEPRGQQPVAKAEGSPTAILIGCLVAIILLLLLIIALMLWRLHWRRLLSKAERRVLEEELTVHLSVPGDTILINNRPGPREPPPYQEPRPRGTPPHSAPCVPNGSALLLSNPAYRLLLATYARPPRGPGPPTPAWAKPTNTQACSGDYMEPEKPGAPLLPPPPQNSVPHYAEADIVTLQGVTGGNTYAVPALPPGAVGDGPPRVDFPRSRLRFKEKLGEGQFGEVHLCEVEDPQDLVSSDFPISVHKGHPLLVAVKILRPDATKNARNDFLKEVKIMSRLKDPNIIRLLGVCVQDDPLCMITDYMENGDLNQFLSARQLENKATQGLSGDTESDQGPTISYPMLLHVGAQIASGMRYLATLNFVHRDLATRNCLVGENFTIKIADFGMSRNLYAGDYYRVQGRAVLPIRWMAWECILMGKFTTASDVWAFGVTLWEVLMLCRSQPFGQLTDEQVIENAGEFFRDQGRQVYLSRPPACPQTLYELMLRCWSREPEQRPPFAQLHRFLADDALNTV
Put plainly: Cellular assay: inhibition of Collagen I-induced DDR1 autophosphorylation in HEK293T cells transiently transfected with DDR1 plasmid (Western blot). It counts as cell-based, human. The following applies: pcDNA3.1 DDR1 WT mouse plasmid, compound 1 h, then 10 µg/mL Collagen I 1 h, P-DDR1 (Y513), read-out: pDDR1 EC50. As for the experimental part:
DDR1/2 cellular assay: Transient transfection of HEK293T cells with DDR1 plasmid is used to study the inhibition of the autophosphorylation of DDR1 induced by Collagen I in cells. HEK293T are seeded, 6x10^5 cells per well in 6-well plates and incubated for 6 h at 37 °C, 5% CO2. Then, cells are transfected using Effectene reactive (Quiagen) with pcDNA3.1 DDR1 WT mouse plasmid. Cells are incubated with transfection complexes under normal growth conditions for 24 h. After that, medium is replaced with fresh medium and cells are incubated for an additional 18 h. Eight serial 1:3 compound dilutions are made in DMSO. The compounds are added to each well of 6 well cell plates and are incubated at 37 °C under CO2 atmosphere 1 h. DDR1's autophosphorylation is stimulated by 1h treatment with 10 µg/mL Collagen I. Then, cells are washed in PBS, lyse adding 100 µl of complete RIPA protein lysis buffer (RIPA Buffer, 1 mM DTT, 5 mM Bezamidine, 10 µg/mL Aprotinin, 10 µg/mL Leupeptin, 710 ng/mL Pepstatin A, 100 µg/mL Trypsin Inhibitor, 40 µg/mL Bestatin, completed with PhosSTOP EASYpack and complete Mini, EDTA-free) and incubated 20 minutes at 4 °C and then centrifugated. Lysates are kept at -80 °C. The protein content of the lysates is determined by DC protein assay (Biorad, Ref. 5000116). The proteins are resolved by SDS-PAGE and transferred to nitrocellulose membrane (GE Healthcare #10600003). The membranes are incubated overnight at 4 °C with antibodies specific for DDR1 (D1G6) (Cell signaling #5583), P-DDR1 (Y513) (E1N8F) (Cell Signaling # 14531) they are washed and then incubated with Alexa Fluor 680 goat anti-rabbit IgG secondary antibodies (Invitrogen, A21076). The bands are visualized and quantified using an Odyssey infrared imaging system (Li-Cor Biosciences). The percentage of DDR1 phosphorylation is finally plotted against concentration for each compound and EC50s for intracellular DDR1 inhibition are calculated using ActivityBase from IDBS.

A further assay deals with T3, DDR2 (Homo sapiens, UniProt Q16832).
T3 construct: The enzymes were purchased as a catalytic domain GST Tag DDR1(#PR6913A) and DDR2 (#PR7167A); purchased ThermoFisher PR7167A
T3 sequence (Q16832 563-849 limits assumed): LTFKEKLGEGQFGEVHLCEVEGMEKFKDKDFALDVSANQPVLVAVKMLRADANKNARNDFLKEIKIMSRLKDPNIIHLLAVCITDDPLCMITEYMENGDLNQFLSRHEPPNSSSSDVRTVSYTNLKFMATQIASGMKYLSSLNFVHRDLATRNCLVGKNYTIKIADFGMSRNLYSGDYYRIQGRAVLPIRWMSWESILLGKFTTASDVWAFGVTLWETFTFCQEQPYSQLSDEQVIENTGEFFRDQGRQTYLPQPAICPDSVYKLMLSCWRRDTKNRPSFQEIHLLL
Put plainly: LanthaScreen Eu-Kinase Binding Assay (TR-FRET tracer displacement), DDR2. The settings on record: catalytic domain GST Tag DDR2; Kinase Tracer 178.
Text: as §1

pEC50, pIC50: −log10 of the molar value.

T1 sequence (Q08345 610-905 limits assumed): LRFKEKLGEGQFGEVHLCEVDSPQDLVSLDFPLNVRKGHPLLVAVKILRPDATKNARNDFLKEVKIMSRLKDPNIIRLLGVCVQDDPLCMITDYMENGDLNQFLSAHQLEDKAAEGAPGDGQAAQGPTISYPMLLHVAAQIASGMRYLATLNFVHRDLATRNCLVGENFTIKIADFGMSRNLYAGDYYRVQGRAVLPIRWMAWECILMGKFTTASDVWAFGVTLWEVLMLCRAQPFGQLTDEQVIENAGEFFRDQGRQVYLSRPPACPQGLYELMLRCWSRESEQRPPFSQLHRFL

For `O=c1ccnc2sc(-c3ccnc(Nc4ccccc4)n3)c(-c3ccccc3)n12` [Compound 29, 3-Phenyl-2-(2-phenylamino-pyrimidin-4-yl)-thiazolo[3,2-a]pyrimidin-5-one], the pIC50 on DDR1 [1] was 7.16; on DDR2, 6.73. In addition, on DDR1 [2], the pEC50 was 6.47.
The matching figures for `NS(=O)(=O)c1cccc(Nc2nccc(-c3sc4nccc(=O)n4c3-c3ccccc3)n2)c1` [Compound 30, 3-[4-(5-Oxo-3-phenyl-5H-thiazolo[3,2-a]pyrimidin-2-yl)-pyrimidin-2-ylamino]-benzenesulfonamide]: 7.86, 7.30 and 7.06.
In the case of `O=c1ccnc2sc(-c3ccnc(Nc4cccc(N5CCN(CCO)CC5)c4)n3)c(-c3ccccc3)n12` [Compound 31, 2-(2-{3-[4-(2-Hydroxy-ethyl)-piperazin-1-yl]-phenylamino}-pyrimidin-4-yl)-3-phenyl-thiazolo[3,2-a]pyrimidin-5-one], the figures for the pIC50 on DDR1 [1] and at DDR2 were 7.81 and 7.74, respectively. For the same compound, the pEC50 on DDR1 [2] was 6.72.
The corresponding values for `CN1CCN(c2ccc(Nc3nccc(-c4sc5nccc(=O)n5c4-c4ccccc4)n3)cc2)CC1` [Compound 34, 2-{2-[4-(4-Methyl-piperazin-1-yl)-phenylamino]-pyrimidin-4-yl}-3-phenyl-thiazolo[3,2-a]pyrimidin-5-one] are 7.87, 7.40 and 7.80.
Take `NS(=O)(=O)c1cccc(Nc2nccc(-c3sc4nccc(=O)n4c3-c3ccccc3Cl)n2)c1` [Compound 37, 3-{4-[3-(2-Chloro-phenyl)-5-oxo-5H-thiazolo[3,2-a]pyrimidin-2-yl]-pyrimidin-2-ylamino}-benzenesulfonamide]: the pIC50 on DDR1 [1] was 8.28; on DDR2, 7.62. The negative-log EC50 (pEC50) at DDR1 [2] was 7.44.
Turning to `O=c1ccnc2sc(-c3ccnc(Nc4cccc(N5CCN(CCO)CC5)c4)n3)c(-c3ccccc3Cl)n12` [Compound 38, 3-(2-Chloro-phenyl)-2-(2-{3-[4-(2-hydroxy-ethyl)-piperazin-1-yl]-phenylamino}-pyrimidin-4-yl)-thiazolo[3,2-a]pyrimidin-5-one], the results for the pIC50 on DDR1 [1] and on DDR2 were 8.37 and 7.78, respectively. For the same compound, the pEC50 on DDR1 [2] was 7.55.
The corresponding values for `CN1CCN(c2ccc(Nc3nccc(-c4sc5nccc(=O)n5c4-c4ccccc4Cl)n3)cc2)CC1` [Compound 39, 3-(2-Chloro-phenyl)-2-{2-[4-(4-methyl-piperazin-1-yl)-phenylamino]-pyrimidin-4-yl}-thiazolo[3,2-a]pyrimidin-5-one] are 8.15, 7.67 and 7.45.
The corresponding values for `NS(=O)(=O)c1cccc(Nc2nccc(-c3sc4nccc(=O)n4c3-c3cccc(Cl)c3)n2)c1` [Compound 40, 3-{4-[3-(3-Chloro-phenyl)-5-oxo-5H-thiazolo[3,2-a]pyrimidin-2-yl]-pyrimidin-2-ylamino}-benzenesulfonamide] are 7.79, 7.21 and 6.95.
The matching figures for `O=c1ccnc2sc(-c3ccnc(Nc4cccc(N5CCN(CCO)CC5)c4)n3)c(-c3cccc(Cl)c3)n12` [Compound 41, 3-(3-Chloro-phenyl)-2-(2-{3-[4-(2-hydroxy-ethyl)-piperazin-1-yl]-phenylamino}-pyrimidin-4-yl)-thiazolo[3,2-a]pyrimidin-5-one]: 8.20, 7.43 and 7.39.
Consider `CN1CCN(c2ccc(Nc3nccc(-c4sc5nccc(=O)n5c4-c4cccc(Cl)c4)n3)cc2)CC1` [Compound 42, 3-(3-Chloro-phenyl)-2-{2-[4-(4-methyl-piperazin-1-yl)-phenylamino]-pyrimidin-4-yl}-thiazolo[3,2-a]pyrimidin-5-one], for which the pIC50 was 8.24 at DDR1 [1] and 7.75 at DDR2. The pEC50 at DDR1 [2] is 7.51.
For `NS(=O)(=O)c1cccc(Nc2nccc(-c3sc4nccc(=O)n4c3-c3ccc(Cl)cc3)n2)c1` [Compound 43, 3-{4-[3-(4-Chloro-phenyl)-5-oxo-5H-thiazolo[3,2-a]pyrimidin-2-yl]-pyrimidin-2-ylamino}-benzenesulfonamide], the pIC50 is 7.94 at DDR1 [1] and 7.54 on DDR2. The pEC50 on DDR1 [2] was 7.50.
Turning to `COc1cnc(Nc2cccc(S(N)(=O)=O)c2)nc1-c1sc2nccc(=O)n2c1-c1ccccc1` [Compound 69, 3-[5-Methoxy-4-(5-oxo-3-phenyl-5H-thiazolo[3,2-a]pyrimidin-2-yl)-pyrimidin-2-ylamino]-benzenesulfonamide], the pIC50 is 5.16 on DDR1 [1] and 5.06 on DDR2.
The corresponding values for `CC(C)c1cc(=O)n2c(-c3ccccc3)c(-c3ccnc(Nc4cccc(N5CCN(CCO)CC5)c4)n3)sc2n1` [Compound 73, 2-(2-{3-[4-(2-Hydroxy-ethyl)-piperazin-1-yl]-phenylamino}-pyrimidin-4-yl)-7-isopropyl-3-phenyl-thiazolo[3,2-a]pyrimidin-5-one] are 7.90 and 7.48.
The corresponding values for `Cc1nc2sc(-c3ccnc(Nc4cccc(N5CCN(CCO)CC5)c4)n3)c(-c3ccccc3)n2c(=O)c1C(C)C` [Compound 76, 2-(2-{3-[4-(2-Hydroxy-ethyl)-piperazin-1-yl]-phenylamino}-pyrimidin-4-yl)-6-isopropyl-7-methyl-3-phenyl-thiazolo[3,2-a]pyrimidin-5-one] are 7.19 and 6.53.

In general, pIC50 refers to the negative decadic logarithm of the IC50, by convention in mol/L. Higher therefore signals a small IC50. Broadly, the pEC50 is −log10 of the EC50, conventionally taken in molar units.
